Data taken from US12208107B2, “Method and compositions for the treatment of anemia through the inhibition of furin” (Brigham Young University, priority 2016, dated 2025).
“Also recorded” adds a separate entry of the source. Each block holds one compound with its values, some of them ahead of it. Residues, ends and D or L forms follow the SMILES beside them.

Legend:
Recombinant human furin = biological target: T1, Recombinant human furin (Homo sapiens, UniProt P09958); assay: In vitro fluorogenic furin activity assay; type: biochemical; details: for inhibition of furin activity in the drug screen: fluorogenic substrate BOC-Arg-Val-Arg-Arg-AMC, FIG. 9 / FIG. 22; for fluorescence (furin activity): single drug at 110 and 220 μM, 50-minute time course
T1 construct: purchased New England BioLabs (Ipswich, MA)
Description: Recombinant human furin was purchased from New England BioLabs (Ipswich, MA). Fluorogenic furin convertase substrate BOC-Arg-Val-Arg-Arg-AMC (AMC=7-Amino-4-methylcoumarin) from Enzo Life Sciences (Farmingdale, NY) and HIV aspartyl protease inhibitors (Sigma) were dissolved in DMSO. Protease inhibitory′ drugs were prepared at a. concentration of 10 mg/mL and stored at room temperature. Furin Inhibitor II chloromethylketone was purchased from EMD Millipore (Darmstadt, Germany).
The assay was performed at pH 7.5 in buffer 50 mM HEPES, 1 mM CaCl2, 1 mM β-mercaptoethanol, 0.2 mg/mL BSA. In a total volume of 100 μL, the final concentration per well of substrate enzyme was 10 μM and 1 U/well respectively. All assays were performed at 37° C. in a 96-well fluorometer (BioTek Synergy H4 Hybrid reader) with an excitation wavelength of 345 nm and an emission wavelength of 420 nm.
Inhibitory small molecules were incubated with enzyme for 1 hour at 37° C. prior to addition of substrate to initiate the reaction. All assays were performed in triplicate. Inhibition constants were calculated based on methods previously described (Lineweaver, H. & Burk, D. The Determination of Enzyme Dissociation Constants. J. Am. Chem. Soc. 56, 658-666 (1934)). […]
The molecular docking studies predicted that PIs bind to the catalytic site of furin as well as to a putative allosteric site on furin (FIGS. 7A and 7B). A fluorescence assay was used to monitor furin activity. Furin has substrate specificity for the multi-basic consensus amino-acid sequence of Arg-X-Lys/Arg-Arg (RXRR) at the cleavage site, where X represents a neutral, polar amino acid. Peptide substrates including the furin cleavage sequence having an attached fluorescent tag were used. A fluorescence tag is quenched when it is attached to the peptide, but when furin cleaves the peptide the fluorophore is released and is able to fluoresce. The inhibitory effect of the PIs in this assay can be characterized through a positive control, in which furin actively cleaves substrate without the presence of an inhibitor.

[1] = system: hepcidin-25 in Huh7 cell media; assay: Hepcidin-25 quantification in Huh7 cell media by mass spectrometry; type: cell-based, human; details: 18 hrs; for production of mature secreted hepcidin: single PI at 15 μM, IL-6 and BMP-9 10 ng/mL each
pSTAT3 in Huh7 cells = assay: STAT3 phosphorylation Western blot after IL-6 induction, Huh7; type: cell-based, human; details: for inhibition of STAT3 phosphorylation (in words): 0-60 μM, IL-6 50 ng/mL
Description: For the STAT3 and Smad4 experiments, the cells were seeded at a density of 1.5×10^5 per flask in 5 mL of culture medium and allowed to reach 70% confluency. At time 0, the cells received fresh media and were treated with nelfinavir, ritonavir, darunavir or indinavir, at concentrations ranging from 0 to 60 μM for three hours, and then induced with IL-6 or BMP-9 (Cat, #200-06 and 120-07, PeproTech, Rocky Hill, NJ) 50 ng/mL, for 30 minutes.
(§1) After treatments, cultured cells were washed with ice-cold PBS and lysed by adding ice-cold RIP A buffer containing 50 mM Tris-HCl (pH 8), 150 mM NaCl, 1% Triton X-100, 0.5% sodium deoxycholate, 0.1% SDS, 5 mM EDTA and IX protease/phosphatase cocktail inhibitor (Thermo Fisher Scientific, Waltham, MA), Cells were scraped off the flask and were further disrupted by passing the solution through a 21 gauge needle. The extracts were then transferred to a microfuge tube and centrifuged for 20 min at 12000 rpm. Protein concentration was determined with a Lowry assay and equal amounts of the resulting protein (30 μg) were separated by 8% SDS-PAGE and then transferred to a nitrocellulose membrane (Bio-Rad).
After transfer, the membranes were blocked in Odyssey™ Blocking Buffer (927-40100, LI-COR Biosciences, Lincoln, NE) at room temperature, for 1 hour. Primary antibodies were diluted in blocking solution containing 0.2% Tween and incubated overnight at 4° C. with polyclonal antibody to ferroportin (rabbit, 1:1000 dilution; PAS-2293, Thermo Scientific, Waltham, MA), phospho-STAT3 Tyr705 and STAT3 (1:1000 dilution, (Cat. #9145 and 9139 respectively, Cell Signaling Technology, Beverly, MA). Blots were normalized by probing the membranes with either a p-actin or glucose-6-phosphate dehydrogenase polyclonal antibody (Cat. #3700 and 8866 respectively, Cell Signaling Technology, Beverly, MA). After incubation and washing with PBS-T, the membranes where incubated in the dark, in blocking solution with 0.2% Tween with IRDye 800CW Goat anti-Rabbit IgG and IRDye® 680RD Donkey anti-Mouse IgG (1:10000, LI-COR Biosciences, Lincoln, NE) for 1 hour at room temperature. The proteins were detected and visualized by fluorescence using the Odyssey Classic (LI-COR Biosciences, Lincoln, NE). Densitometry analysis of specific bands was performed with the Image Studio software.
To assess whether PIs abrogate the IL-6 signaling cascade, STATS phosphorylation (pSTAT3) was measured in the hepatocyte cell lines. PIs were incubated with both Huh7 and HepG2 cell lines for 3 hours, before the addition of IL-6 (50 ng/mL) for 30 minutes. Concentrations of PIs ranged from 0-60 μM. Following 30 minutes of IL-6 induction, cells wore immediately lysed, and proteins harvested for Western blot analysis. Untreated hepatocyte control cells are designated as healthy.

[2] = system: HAMP gene expression in Huh7 hepatocytes; assay: HAMP gene expression (RT-qPCR), Huh7; type: cell-based, human; details: IL-6/BMP-9 induced Huh7, 18 hrs; ND 15 μM, CMK 25 μM
Description: Cells were seeded at a density of 1.5×10^6 per T25 flask in 5 mL culture medium and allowed to reach 50% confluency. At time 0, the cells received fresh media and were then simultaneously treated with either nelfinavir or darunavir alone, or nelfinavir and darunavir at varying concentrations (2.5/2.5 μM, 5/5 μM and 7.5/7.5 μM) and induced with IL-6 and BMP-9 (10 ng/mL each) for 18 hours. […] Control groups not being induced with cytokines, are designated as ‘Healthy’.
RNA was isolated by washing tissue culture in 1×PBS, before applying QIAzol lysis reagent (Cat #79306). RNA was then purified on RNeasy mini kit columns (Cat #74104) from Qiagen. All samples were treated with Qiagen DNase (Cat #79254). Two micrograms of RNA were used for reverse transcription and subsequent SYBR® Green ROX real time PCR for the genes of interest. Reverse transcription kits (Cat #330401) and SYBR Green real-time PCR master mixes (Cat #330523) were from Qiagen (Louisville, KY). […]
Real time quantitative PCR was performed on an Applied Biosciences StepOne plus instrument and analyzed with StepOne software v2.3. The relative amounts of transcripts from each gene were normalized to reference gene GAPDH and calculated as follows: ΔΔCT=the average ΔCT of sample B−the average ΔCT of sample B, and their fold difference=2−^ΔΔCT.

[3] = system: prohepcidin in Huh7 cell media; assay: Prohepcidin secretion into Huh7 cell media; type: cell-based, human
Description: (§2) Cells were seeded at a density of 1.5×10^6 per T25 flask in 5 mL culture medium and allowed to reach 50% confluency. At time 0, the cells received fresh media and were then simultaneously treated with either nelfinavir or darunavir alone, or nelfinavir and darunavir at varying concentrations (2.5/2.5 μM, 5/5 μM and 7.5/7.5 μM) and induced with IL-6 and BMP-9 (10 ng/mL each) for 18 hours. After 18 hours, 2 mL of media were collected, aliquoted and flash frozen for mass spectrometry (MS) analysis. Control groups not being induced with cytokines, are designated as ‘Healthy’.

[4] = system: ferroportin in HepG2 cells; assay: Ferroportin Western blot, HepG2; type: cell-based, human; details: HepG2, IL-6/BMP-9 10 ng/mL each; ND 15 μM, CMK 25 μM
Description: as §2
as §1, with “(Bio-Rad). […]” for “(Bio-Rad).”

[5] = system: Female Lewis rats (PG-LPS model of ACI); assay: PG-LPS rat model of anemia of chronic inflammation; type: in vivo; details: for serum hepcidin, lower than in PG-LPS rats / serum prohepcidin, higher than in PG-LPS rats: ELISA; for Hb (g/dL) Day 0 / Hb (g/dL) Day 62: nelfinavir with ritonavir by oral gavage
[6] = PG-LPS rats, listed as nelfinavir
[7] = Treated Control (no PG-LPS), n = 4

T1 sequence (P09958 108-794): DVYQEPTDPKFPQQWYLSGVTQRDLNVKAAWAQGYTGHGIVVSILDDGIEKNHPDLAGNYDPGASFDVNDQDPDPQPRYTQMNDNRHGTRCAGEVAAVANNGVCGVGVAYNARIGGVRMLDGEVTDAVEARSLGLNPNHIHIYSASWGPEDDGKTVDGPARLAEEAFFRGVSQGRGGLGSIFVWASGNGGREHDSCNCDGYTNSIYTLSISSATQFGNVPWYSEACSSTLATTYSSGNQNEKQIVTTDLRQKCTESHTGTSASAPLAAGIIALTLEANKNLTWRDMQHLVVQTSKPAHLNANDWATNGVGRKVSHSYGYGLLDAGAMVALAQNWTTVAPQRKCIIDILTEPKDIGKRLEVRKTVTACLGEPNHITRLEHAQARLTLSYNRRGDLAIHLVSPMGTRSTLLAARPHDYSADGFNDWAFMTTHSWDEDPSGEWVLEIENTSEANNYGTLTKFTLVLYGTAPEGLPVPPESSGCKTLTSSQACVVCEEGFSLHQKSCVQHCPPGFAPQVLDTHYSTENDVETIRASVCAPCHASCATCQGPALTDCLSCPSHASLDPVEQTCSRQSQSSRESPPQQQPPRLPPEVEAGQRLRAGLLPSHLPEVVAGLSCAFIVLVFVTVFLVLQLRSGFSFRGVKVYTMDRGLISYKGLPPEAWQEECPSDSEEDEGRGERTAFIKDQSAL

Compound: CC(C)CN(C[C@@H](O)[C@H](Cc1ccccc1)NC(=O)O[C@H]1CO[C@H]2OCC[C@H]21)S(=O)(=O)c1ccc(N)cc1 [Darunavir, [(1R, 5S, 6R)-2,8-dioxabicyclo[3.3.0]oct-6-yl] N-[(2S, 3R)-4-[(4-aminophenyl)sulfonyl-(2-methylpropyl)amino]-3-hydroxy-1-phenyl-butan-2-yl] carbamate]
type of inhibition (Lineweaver-Burk) (Recombinant human furin): uncompetitive inhibition
inhibition of furin activity in the drug screen (Recombinant human furin): three best inhibitors
fluorescence (furin activity) (Recombinant human furin): decreased fluorescence
production of mature secreted hepcidin [1]: back to basal levels
inhibition of STAT3 phosphorylation (in words) (pSTAT3 in Huh7 cells): no signs of pSTAT3 inhibition; also recorded: did not show any statistically significant inhibition; also recorded: Neither darunavir nor indinavir inhibits STAT3 phosphorylation

Compound: CCCCCCCCCC(=O)N[C@@H](CCCN=C(N)N)C(=O)N[C@H](C(=O)N[C@@H](CCCCN)C(=O)N[C@@H](CCCN=C(N)N)C(=O)CCl)C(C)C [Dec-RVKR-CMK] (HELM PEPTIDE1{[CCCCCCCCCC(=O)[*:2]].R.V.K.R.[ClC[*:1]]}$$$$V2.0)
inhibition of furin activity in the drug screen (Recombinant human furin): full inhibition of furin
hepcidin-25 in media of cytokine-induced cells ([1]; IL-6/BMP-9 10 ng/mL each, ND 15 μM (7.5 μM each), CMK 25 μM): statistically significant drop in mature hepcidin-25 is not observed
HAMP gene expression [2]: this phenomenon was not observed
prohepcidin in media of cytokine-induced cells (in words) ([3]; IL-6/BMP-9 10 ng/mL each, 18 hr, ND 7.5 μM each, CMK 25 μM): significantly raised
secreted prohepcidin concentration, healthy cell groups ([3]; no cytokine induction): No significant difference
increase of ferroportin expression compared to IL-6/BMP-9 control [4]: 109%

Compound: CC(C)(C)NC(=O)[C@@H]1CN(Cc2cccnc2)CCN1C[C@@H](O)C[C@@H](Cc1ccccc1)C(=O)N[C@H]1c2ccccc2C[C@H]1O [Indinavir]
inhibition of STAT3 phosphorylation (in words) (pSTAT3 in Huh7 cells): no signs of pSTAT3 inhibition; also recorded: did not show any statistically significant inhibition; also recorded: Neither darunavir nor indinavir inhibits STAT3 phosphorylation

type of inhibition (Lineweaver-Burk) (Recombinant human furin): competitive inhibition
inhibition of furin activity in the drug screen (Recombinant human furin): three best inhibitors
fluorescence (furin activity) (Recombinant human furin): decreased fluorescence
Compound: Cc1c(O)cccc1C(=O)N[C@@H](CSc1ccccc1)[C@H](O)CN1C[C@H]2CCCC[C@H]2C[C@H]1C(=O)NC(C)(C)C [Nelfinavir]
production of mature secreted hepcidin [1]: back to basal levels
inhibition of STAT3 phosphorylation (in words) (pSTAT3 in Huh7 cells): inhibiting STAT3 phosphorylation in a dose dependent manner; also recorded: concentration dependent manner; also recorded: dose dependent inhibition
inhibition at 5 µM (pSTAT3 in Huh7 cells; Homo sapiens, Huh-7, 5 μM, 3 hrs before IL-6 50 ng/mL 30 min): 27%
inhibition at 15 µM (pSTAT3 in Huh7 cells; Homo sapiens, Huh-7, 15 μM, 3 hrs before IL-6 50 ng/mL 30 min): 46%
HAMP gene expression [2]: significant inhibitory effect
iron in bone marrow, PG-LPS rats ([5]; ICP-MS): increased significantly
iron in serum, PG-LPS rats ([5]; ICP-MS): increased significantly
liver iron content, PG-LPS rats ([5]; PG-LPS PI treated group): dropped
more serum iron than PG-LPS treated rats ([5]; PG-LPS rats): ~25%
recovery of hemoglobin and hematocrit ([5]; PG-LPS rats): did not demonstrate a recovery
serum hepcidin, lower than in PG-LPS rats ([5]; PG-LPS rats): ~2 fold
serum prohepcidin, higher than in PG-LPS rats ([5]; PG-LPS rats): ~2.5 fold
serum hepcidin, lower than in PG-LPS rats [5, 6]: approximately 2 fold
serum prohepcidin, higher than in PG-LPS rats [5, 6]: approximately 2.5 fold
recovery of hemoglobin and hematocrit [5, 6]: did not significantly recover
increase of prohepcidin ([5]; PG-LPS rats, ritonavir co-administered): 148%
inhibition of mature hepcidin production ([5]; PG-LPS rats, therapeutic serum concentration 4 ng/mL, ritonavir co-administered): 47%
transcription of HAMP mRNA in liver ([5]; PG-LPS treated animals, qPCR): did not show any statistically significant changes
Hb (g/dL) Day 0 [5, 7]: 14.4 ± 0.4 g/dL
Hb (g/dL) Day 62 [5, 7]: 15.2 ± 0.2 g/dL
HCT (%) Day 0 ([5]; Treated Control, n = 4): 41.5 ± 0.9%
HCT (%) Day 62 ([5]; Treated Control, n = 4): 44.6 ± 2.7%
MCV (fl) Day 0 ([5]; Treated Control, n = 4): 55.3 ± 0.7 fL
MCV (fl) Day 62 ([5]; Treated Control, n = 4): 49.7 ± 0.5 fL
RDW (%) Day 0 ([5]; Treated Control, n = 4): 12.6 ± 0.1%
RDW (%) Day 62 ([5]; Treated Control, n = 4): 37.2 ± 0.7%
HCT (%) Day 0 ([5]; Treated PG-LPS, n = 7): 41.5 ± 2.4%
HCT (%) Day 62 ([5]; Treated PG-LPS, n = 7): 37.6 ± 3.9%
MCV (fl) Day 0 ([5]; Treated PG-LPS, n = 7): 55.8 ± 1.5 fL
MCV (fl) Day 62 ([5]; Treated PG-LPS, n = 7): 46.7 ± 0.6 fL
RDW (%) Day 0 ([5]; Treated PG-LPS, n = 7): 13.6 ± 2.5%
RDW (%) Day 62 ([5]; Treated PG-LPS, n = 7): 42.8 ± 1.2%
Hb (g/dL) Day 0 ([5]; Treated PG-LPS, n = 7): 14.1 ± 1.1 g/dL
Hb (g/dL) Day 62 ([5]; Treated PG-LPS, n = 7): 13.0 ± 1.1 g/dL
liver ferroportin, PG-LPS rats (in words) ([5]; Western blot): significantly higher
increase in liver ferroportin, healthy rats ([5]; healthy treated rats): ~3 fold
hepcidin levels, healthy rats ([5]; healthy treated vs healthy): slightly higher
liver iron content, healthy rats ([5]; healthy treated vs healthy): dropped significantly
prohepcidin levels, healthy rats ([5]; healthy treated vs healthy): much higher
serum iron, healthy rats ([5]; healthy treated vs healthy): not significantly different
increase of ferroportin expression in animal liver ([5]; ritonavir co-administered): 2.5 fold

Compound: CC(C)c1nc(CN(C)C(=O)N[C@H](C(=O)N[C@@H](Cc2ccccc2)C[C@H](O)[C@H](Cc2ccccc2)NC(=O)OCc2cncs2)C(C)C)cs1 [Ritonavir]
inhibition of STAT3 phosphorylation (in words) (pSTAT3 in Huh7 cells): not concentration dependent
inhibition of STAT3 phosphorylation (in words) (pSTAT3 in Huh7 cells; listed as ritonavir): dose dependent inhibition
inhibition of STAT3 phosphorylation (pSTAT3 in Huh7 cells; all concentrations tested): ~25%
average pSTAT3 inhibition (pSTAT3 in Huh7 cells; doses 5-30 μM): 27%
